Reference: PubChem BioAssay AID2060626 (Molecular Pharmacology Branch, DTP, NCI, 2025)
“And” between values parts separate entries of the source, which are not always exact repeats. Equal entries are not always repeated.

Tested on: 168753-222-R-J1-PDC complex spheroid viability
Assay: Anticancer human tumor 168753-222-R-J1-PDC patient-derived bladder carcinoma cell line growth inhibition [CLK]
Conditions: for viability, T/C: stronger effect = lower value; active = viability on the fitted dose curve at most 10% of control; inactive = the rest
In short: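 Multi-cell-type spheroids combined patient-derived tumor cells with HUVEC endothelial cells and human mesenchymal stem cells. Paired agents were dosed in half-log steps down from about clinical Cmax, or from 10 microM where Cmax was unknown.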

[1] = curve of first compound, second compound 0.0316 µM
[2] = curve of first compound, second compound 0.1 µM
[3] = curve of first compound, second compound 0.316 µM
[4] = curve of first compound, second compound 1 µM
[5] = curve of first compound, second compound 3.16 µM
[6] = curve of first compound, second compound 10 µM
[7] = second compound 0.0316 µM, first compound 0.0316 µM
[8] = second compound 0.0316 µM, first compound 0.1 µM
[9] = second compound 0.0316 µM, first compound 0.316 µM
[10] = second compound 0.0316 µM, first compound 1 µM
[11] = second compound 0.1 µM, first compound 0.0316 µM
[12] = second compound 0.1 µM, first compound 0.1 µM
[13] = second compound 0.1 µM, first compound 0.316 µM
[14] = second compound 0.1 µM, first compound 1 µM
[15] = second compound 0.316 µM, first compound 0.0316 µM
[16] = second compound 0.316 µM, first compound 0.1 µM
[17] = second compound 0.316 µM, first compound 0.316 µM
[18] = second compound 0.316 µM, first compound 1 µM
[19] = second compound 1 µM, first compound 0.0316 µM
[20] = second compound 1 µM, first compound 0.1 µM
[21] = second compound 1 µM, first compound 0.316 µM
[22] = second compound 1 µM, first compound 1 µM
[23] = second compound 3.16 µM, first compound 0.0316 µM
[24] = second compound 3.16 µM, first compound 0.1 µM
[25] = second compound 3.16 µM, first compound 0.316 µM
[26] = second compound 3.16 µM, first compound 1 µM
[27] = second compound 10 µM, first compound 0.0316 µM
[28] = second compound 10 µM, first compound 0.1 µM
[29] = second compound 10 µM, first compound 0.316 µM
[30] = second compound 10 µM, first compound 1 µM
[31] = second compound 0.0316 µM, first compound 3.16 µM
[32] = second compound 0.0316 µM, first compound 10 µM
[33] = second compound 0.1 µM, first compound 3.16 µM
[34] = second compound 0.1 µM, first compound 10 µM
[35] = second compound 0.316 µM, first compound 3.16 µM
[36] = second compound 0.316 µM, first compound 10 µM
[37] = second compound 1 µM, first compound 3.16 µM
[38] = second compound 1 µM, first compound 10 µM
[39] = second compound 3.16 µM, first compound 3.16 µM
[40] = second compound 3.16 µM, first compound 10 µM
[41] = second compound 10 µM, first compound 3.16 µM
[42] = second compound 10 µM, first compound 10 µM
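Also: viability measured after seven days of drug exposure.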
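For viability, T/C in this document: luminescence signal used as surrogate for viable cell amount; 100% = DMSO vehicle control wells.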

COc1c(OCCCN2CCOCC2)ccc2c3n(c(=NC(=O)c4cnc(N)nc4)nc12)CCN3 + CN1CCN(c2cc(C(=O)Nc3cc4cc(-c5cnn(C)c5)ccc4cn3)ccn2)CC1
active: viability, T/C [8] 7.62% | viability, T/C [9] 4.48% | viability, T/C [10] 3.95% | viability, T/C [11] 7.93% | viability, T/C [12] 4.89% | viability, T/C [13] 1.94% | viability, T/C [14] 0.48% | viability, T/C (second compound 0.316 µM, first compound 0.01 µM) 10.1% | viability, T/C [15] 2.34% | viability, T/C [16] 0.36% | viability, T/C [17] 0.18% | viability, T/C [18] 1.84% | viability, T/C (second compound 1 µM, first compound 0.00316 µM) 0.61% | viability, T/C (second compound 1 µM, first compound 0.01 µM) 0.25% | viability, T/C [19] 0.08% | viability, T/C [20] 0.05% | viability, T/C [21] 0.06% | viability, T/C [22] 0.09% | viability, T/C (second compound 3.16 µM, first compound 0.00316 µM) 1.35% | viability, T/C (second compound 3.16 µM, first compound 0.01 µM) 0.2% | viability, T/C [23] 0.08% | viability, T/C [24] 0.05% | viability, T/C [25] 0.09% | viability, T/C [26] 0.12% | viability, T/C (second compound 10 µM, first compound 0.00316 µM) 0.06% | viability, T/C (second compound 10 µM, first compound 0.01 µM) 0.11% | viability, T/C [27] 0.17% | viability, T/C [28] 0.73% | viability, T/C [29] 0.21% | viability, T/C [30] 0.22%
inactive: viability, T/C (second compound 0.0316 µM, first compound 0.00316 µM) 49% | viability, T/C (second compound 0.0316 µM, first compound 0.01 µM) 28.7% | viability, T/C [7] 11.2% | viability, T/C (second compound 0.1 µM, first compound 0.00316 µM) 31.4% | viability, T/C (second compound 0.1 µM, first compound 0.01 µM) 21.4% | viability, T/C (second compound 0.316 µM, first compound 0.00316 µM) 13.2%
< 3.16 nM: IC50 [1] | IC50 [2] | IC50 [3] | IC50 [4] | IC50 [5] | IC50 [6]

O=c1[nH]cc(F)c(=O)[nH]1 + CN1CCN(c2cc(C(=O)Nc3cc4cc(-c5cnn(C)c5)ccc4cn3)ccn2)CC1
active: viability, T/C [16] 10% | viability, T/C [17] 8.13% | viability, T/C [18] 8.71% | viability, T/C [35] 8.45% | viability, T/C [36] 8.48% | viability, T/C [19] 0.22% | viability, T/C [20] 0.19% | viability, T/C [21] 0.15% | viability, T/C [22] 0.18% | viability, T/C [37] 0.33% | viability, T/C [38] 0.58% | viability, T/C [23] 0.97% | viability, T/C [24] 0.11% | viability, T/C [25] 0.09% | viability, T/C [26] 0.19% | viability, T/C [39] 1.18% | viability, T/C [40] 1.57% | viability, T/C [27] 0.09% | viability, T/C [28] 0.24% | viability, T/C [29] 0.24% | viability, T/C [30] 0.82% | viability, T/C [41] 1.41% | viability, T/C [42] 1.15%
8930 nM: IC50 [1]
inactive: viability, T/C [7] 100% | viability, T/C [8] 91.9% | viability, T/C [9] 78.8% | viability, T/C [10] 108% | viability, T/C [31] 95.4% | viability, T/C [32] 45.2% | viability, T/C [11] 72% | viability, T/C [12] 62.8% | viability, T/C [13] 15.2% | viability, T/C [14] 45.6% | viability, T/C [33] 36.3% | viability, T/C [34] 29% | viability, T/C [15] 10.5%
< 31.6 nM: IC50 [3] | IC50 [4] | IC50 [5] | IC50 [6]
160 nM: IC50 [2]

O=C(c1cc(Cc2n[nH]c(=O)c3ccccc23)ccc1F)N1CCN(C(=O)C2CC2)CC1 + CNC(=O)c1ccc(Nc2nc(OC3CCCC3)c3c(-c4ccc5nc(C)oc5c4)c[nH]c3n2)c(OC)c1
> 10000 nM: IC50 [1] | IC50 [2] | IC50 [3]
< 31.6 nM: IC50 [4] | IC50 [5] | IC50 [6]
inactive: viability, T/C [7] 105% | viability, T/C [8] 113% | viability, T/C [9] 103% | viability, T/C [10] 118% | viability, T/C [31] 114% | viability, T/C [32] 95.5% | viability, T/C [11] 92.3% | viability, T/C [12] 86.1% | viability, T/C [13] 92.8% | viability, T/C [14] 95% | viability, T/C [33] 99.2% | viability, T/C [34] 93.7% | viability, T/C [15] 76.8% | viability, T/C [16] 74.2% | viability, T/C [17] 68.2% | viability, T/C [18] 63.6% | viability, T/C [35] 84.8% | viability, T/C [36] 70.4% | viability, T/C [19] 39.7% | viability, T/C [20] 41% | viability, T/C [21] 37.3% | viability, T/C [22] 39.7% | viability, T/C [37] 44.4% | viability, T/C [38] 38.4% | viability, T/C [23] 24.1% | viability, T/C [24] 26.2% | viability, T/C [25] 22.7% | viability, T/C [26] 17.8% | viability, T/C [39] 22.3% | viability, T/C [40] 25.5% | viability, T/C [27] 17.8% | viability, T/C [28] 18.5% | viability, T/C [29] 18.7% | viability, T/C [30] 18.1% | viability, T/C [41] 18.1% | viability, T/C [42] 21.3%

CN1CCN(c2cc(C(=O)Nc3cc4cc(-c5cnn(C)c5)ccc4cn3)ccn2)CC1
102 nM [middle of 12 runs]: IC50 (compound alone, run of 07/31/2023)
active: viability, T/C (compound 1 µM) 1.32% [middle of 11 runs] | viability, T/C (compound 3.16 µM) 0.5% [middle of 11 runs] | viability, T/C (compound 10 µM) 0.32% [middle of 10 runs]
10.2% [middle of 12 runs]: viability, T/C (compound 0.316 µM)

COc1cccc2c1C(=O)c1c(O)c3c(c(O)c1C2=O)CC(O)(C(=O)CO)CC3OC1CC(N)C(O)C(C)O1 (stereo unspecified)
inactive: viability, T/C (compound 0.0316 µM) 49.4% and 85.7% | viability, T/C (compound 0.1 µM) 38.7% and 47.7% | viability, T/C (compound 0.316 µM) 28.3% and 46.2% | viability, T/C (compound 1 µM) 7.17% and 21%
< 31.6 nM and 159 nM: IC50 (curve of compound)
7.34% and 13.8%: viability, T/C (compound 3.16 µM)
active: viability, T/C (compound 10 µM) 0.22% and 0.15%

NC(=O)C(=Cn1cnc(-c2cc(C(F)(F)F)cc(C(F)(F)F)c2)n1)c1cncnc1
inactive: viability, T/C (compound 0.00949 µM) 102% and 101% | viability, T/C (compound 0.03 µM) 76% and 95.7% | viability, T/C (compound 0.0949 µM) 52.8% and 83.2% | viability, T/C (compound 0.3 µM) 48.1% and 84.1% | viability, T/C (compound 0.949 µM) 41.1% and 68.7% | viability, T/C (compound 3 µM) 26.5% and 52%

CC(CO)NC(=O)c1cc(-c2ccc(Cl)cc2)nn(-c2cnn(C)c2)c1=O (stereo unspecified) + CNC(=O)c1ccc(Nc2nc(OC3CCCC3)c3c(-c4ccc5nc(C)oc5c4)c[nH]c3n2)c(OC)c1
inactive: viability, T/C [7] 117% | viability, T/C [8] 99.4% | viability, T/C [9] 94.4% | viability, T/C [10] 97.2% | viability, T/C [31] 97.2% | viability, T/C [32] 88.2% | viability, T/C [11] 102% | viability, T/C [12] 99.6% | viability, T/C [13] 85.7% | viability, T/C [14] 96.7% | viability, T/C [33] 95% | viability, T/C [34] 85.1% | viability, T/C [15] 79.1% | viability, T/C [16] 76.8% | viability, T/C [17] 74.6% | viability, T/C [18] 77.2% | viability, T/C [35] 80.5% | viability, T/C [36] 66.8% | viability, T/C [19] 48.9% | viability, T/C [20] 51.3% | viability, T/C [21] 44% | viability, T/C [22] 32.6% | viability, T/C [37] 55.4% | viability, T/C [38] 53.1% | viability, T/C [23] 24.6% | viability, T/C [24] 37% | viability, T/C [25] 39.2% | viability, T/C [26] 28% | viability, T/C [39] 39.4% | viability, T/C [40] 35.2% | viability, T/C [27] 18.5% | viability, T/C [28] 26.8% | viability, T/C [29] 27.3% | viability, T/C [30] 22.2% | viability, T/C [41] 30% | viability, T/C [42] 27.7%
> 10000 nM: IC50 [1] | IC50 [2] | IC50 [3]
< 31.6 nM: IC50 [4] | IC50 [5] | IC50 [6]
